Here are results for 16 compounds from patent publication US20150175599A1, “FAAH Inhibitors” (Ironwood Pharmaceuticals, Inc., priority 2010, published 2015).

The nature of data set [1]: Pharmacokinetic study, plasma level 2 hours after oral dosing in rats. Format: in vivo. The procedure, abridged:
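Rats dosed by oral gavage in 1% DMA/99% Vitamin E TPGS; EDTA plasma taken by retro-orbital bleed 2 h post-dose. Acetonitrile precipitation with internal standard, LC/MS/MS quantitation against plasma standards 0.1–3000 ng/mL.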

Another data set deals with T1, hERG channel (Homo sapiens, UniProt Q12809).
T1 construct: expressed in transfected cells; host or cells: CHO (hERG-CHO), under Geneticin selection
T1 sequence (Q12809 whole entry): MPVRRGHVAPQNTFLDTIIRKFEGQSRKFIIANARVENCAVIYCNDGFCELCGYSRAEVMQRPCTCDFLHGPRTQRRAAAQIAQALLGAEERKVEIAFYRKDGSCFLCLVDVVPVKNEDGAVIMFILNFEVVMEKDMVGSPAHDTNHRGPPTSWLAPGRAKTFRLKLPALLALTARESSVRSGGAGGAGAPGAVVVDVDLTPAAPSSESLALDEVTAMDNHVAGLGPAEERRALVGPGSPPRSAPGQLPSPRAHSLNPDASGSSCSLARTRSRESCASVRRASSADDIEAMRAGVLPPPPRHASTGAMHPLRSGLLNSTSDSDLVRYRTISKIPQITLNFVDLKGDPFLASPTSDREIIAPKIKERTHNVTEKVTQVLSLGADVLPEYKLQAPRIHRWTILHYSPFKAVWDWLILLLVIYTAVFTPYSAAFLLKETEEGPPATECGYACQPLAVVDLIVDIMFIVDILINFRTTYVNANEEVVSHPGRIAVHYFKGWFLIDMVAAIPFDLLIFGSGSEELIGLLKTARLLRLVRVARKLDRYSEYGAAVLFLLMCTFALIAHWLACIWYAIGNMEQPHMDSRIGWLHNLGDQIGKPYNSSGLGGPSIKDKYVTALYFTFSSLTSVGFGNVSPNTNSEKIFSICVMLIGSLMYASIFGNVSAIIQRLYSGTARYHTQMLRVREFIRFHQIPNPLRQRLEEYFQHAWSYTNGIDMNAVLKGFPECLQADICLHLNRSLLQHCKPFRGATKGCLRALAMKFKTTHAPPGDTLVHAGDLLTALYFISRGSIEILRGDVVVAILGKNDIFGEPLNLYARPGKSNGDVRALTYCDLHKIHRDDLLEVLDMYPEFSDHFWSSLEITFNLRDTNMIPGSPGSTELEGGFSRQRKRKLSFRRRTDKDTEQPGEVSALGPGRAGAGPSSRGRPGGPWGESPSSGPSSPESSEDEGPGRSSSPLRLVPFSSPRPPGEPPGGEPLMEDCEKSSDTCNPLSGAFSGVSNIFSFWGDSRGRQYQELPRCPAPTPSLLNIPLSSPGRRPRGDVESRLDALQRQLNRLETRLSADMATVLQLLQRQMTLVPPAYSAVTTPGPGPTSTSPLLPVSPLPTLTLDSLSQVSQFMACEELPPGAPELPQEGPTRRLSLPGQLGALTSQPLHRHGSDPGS
The data set can be described thus: hERG channel inhibition, automated patch clamp (IonWorks HT, hERG-CHO). To be noted: CHO cells expressing hERG, 600 s incubation; for inhibition at 600 s, 1 µM: 1 μM compound, read-out: hERG Channel Inhibition % (at 1 μM), vehicle-subtracted values; for inhibition at 600 s, 10 µM: 10 μM compound, read-out: hERG Channel Inhibition % (at 10 μM), vehicle-subtracted values. Format: cell-based. An outline of the steps:
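hERG-CHO cells held at 30 °C for 48 h before IonWorks HT patch clamp: from −80 mV to +40 for 2 s, then −50 mV for 2 s tail, repeated three times, before and after 600 s compound exposure. Third-pulse post/pre tail amplitude ratio gave percent inhibition; cells with seal <50 MOhm or tail <250 pA excluded.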
(hERG is a cardiac potassium channel; its block is linked to QT prolongation.)

By inhibition is commonly meant the share of the control response that was lost under treatment. `COc1cc(NC(=O)C(=O)c2c(C)n(Cc3ccc(Cl)cn3)c3ccc(C)cc23)ccn1` [Compound 61, 2-(1-((5-chloropyridin-2-yl)methyl)-2,5-dimethyl-1H-indol-3-yl)-N-(2-methoxypyridin-4-yl)-2-oxoacetamide]: in data set [1], the “2 hr plasma level-ng/mL (rat, 10 mg/kg PO, 2 hr)” value (shortened to “2 hr plasma level-ng/mL”) is given as “D (D = greater than 1000 nM)”. On hERG channel, the inhibition at 600 s, 1 µM lay in the range of 25 to 50% and the inhibition at 600 s, 10 µM was in the range of 50 to 75%.

`COc1cc(NC(=O)C(=O)c2c(C)n(Cc3ccc(Cl)cc3)c3ccncc23)ccn1` [Compound 37, 2-(1-(4-chlorobenzyl)-2-methyl-1H-pyrrolo[3,2-c]pyridin-3-yl)-N-(2-methoxypyridin-4-yl)-2-oxoacetamide]: the “2 hr plasma level-ng/mL” value in data set [1] is “C (C = between 100 nM and 1000 nM)”. Besides, at hERG channel, the inhibition at 600 s, 1 µM was 25 to 50% and the inhibition at 600 s, 10 µM was in the range of 50 to 75%.

Turning to `COc1cc(NC(=O)C(=O)c2c(C)n(Cc3ccc(Cl)cc3)c3ccc(NC(C)=O)cc23)ccn1` [Compound 22, 2-(5-acetamido-1-(4-chlorobenzyl)-2-methyl-1H-indol-3-yl)-N-(2-methoxypyridin-4-yl)-2-oxoacetamide], the “2 hr plasma level-ng/mL” value in data set [1] is “B (B = between 10 nM and 100 nM)”. Further, at hERG channel, the inhibition at 600 s, 1 µM was under 25% and the inhibition at 600 s, 10 µM is under 25%.

For `COc1ccc2c(c1)c(C(=O)C(=O)Nc1ccnc(OC)c1)c(C)n2Cc1cnc(Cl)cn1` [Compound 12, 2-(1-((5-chloropyrazin-2-yl)methyl)-5-methoxy-2-methyl-1H-indol-3-yl)-N-(2-methoxypyridin-4-yl)-2-oxoacetamide], the “2 hr plasma level-ng/mL” value in data set [1] is “C (C = between 100 nM and 1000 nM)”. Moreover, on hERG channel, the inhibition at 600 s, 1 µM was under 25% and the inhibition at 600 s, 10 µM was under 25%.

Regarding `COc1cc(NC(=O)C(=O)c2c(C)n(Cc3ccc(Cl)cc3)c3ccc(Br)cc23)ccn1` [Compound 18, 2-(5-bromo-1-(4-chlorobenzyl)-2-methyl-1H-indol-3-yl)-N-(2-methoxypyridin-4-yl)-2-oxoacetamide], the “2 hr plasma level-ng/mL” value in data set [1] is given as “D (D = greater than 1000 nM)”. In addition, at hERG channel, the inhibition at 600 s, 1 µM was under 25% and the inhibition at 600 s, 10 µM is under 25%.

For the compound `COc1cc(NC(=O)C(=O)c2c(C)n(Cc3ncc(Cl)cc3F)c3cc(F)c(OC)cc23)ccn1` [Compound 99, 2-(1-((5-chloro-3-fluoropyridin-2-yl)methyl)-6-fluoro-5-methoxy-2-methyl-1H-indol-3-yl)-N-(2-methoxypyridin-4-yl)-2-oxoacetamide], the “2 hr plasma level-ng/mL” value in data set [1] is recorded as “D (D = greater than 1000 nM)”. In addition, at hERG channel, the inhibition at 600 s, 1 µM was under 25% and the inhibition at 600 s, 10 µM is under 25%.

`COc1cc(NC(=O)C(=O)c2c(C)n(Cc3ncc(Cl)cc3Cl)c3cc(Cl)c(OC)cc23)ccn1` [Compound 70, 2-(6-chloro-1-((3,5-dichloropyridin-2-yl)methyl)-5-methoxy-2-methyl-1H-indol-3-yl)-N-(2-methoxypyridin-4-yl)-2-oxoacetamide]: in data set [1], the “2 hr plasma level-ng/mL” value was “C (C = between 100 nM and 1000 nM)”. In addition, at hERG channel, the inhibition at 600 s, 1 µM was under 25% and the inhibition at 600 s, 10 µM was under 25%.

For `COc1cc(NC(=O)C(=O)c2c(C)n(Cc3ccc(Cl)cc3)c3ccc(OC(F)(F)F)cc23)ccn1` [Compound 23, 2-(1-(4-chlorobenzyl)-2-methyl-5-(trifluoromethoxy)-1H-indol-3-yl)-N-(2-methoxypyridin-4-yl)-2-oxoacetamide], the “2 hr plasma level-ng/mL” value in data set [1] was “C (C = between 100 nM and 1000 nM)”. Also, on hERG channel, the inhibition at 600 s, 1 µM is under 25% and the inhibition at 600 s, 10 µM is 50 to 75%.

As to `COc1cc(NC(=O)C(=O)c2c(C)n(Cc3ccc(Cl)cn3)c3ccc(Cl)cc23)ccn1` [Compound 63, 2-(5-chloro-1-((5-chloropyridin-2-yl)methyl)-2-methyl-1H-indol-3-yl)-N-(2-methoxypyridin-4-yl)-2-oxoacetamide], the “2 hr plasma level-ng/mL” value in data set [1] is “C (C = between 100 nM and 1000 nM)”. Further, on hERG channel, the inhibition at 600 s, 1 µM was under 25% and the inhibition at 600 s, 10 µM fell in the range of 50 to 75%.

On to `COc1cc(NC(=O)C(=O)c2c(C)n(Cc3ccc(Cl)cc3)c3ccc(C(C)=O)cc23)ccn1` [Compound 5, 2-(5-acetyl-1-(4-chlorobenzyl)-2-methyl-1H-indol-3-yl)-N-(2-methoxypyridin-4-yl)-2-oxoacetamide], for which, in data set [1], the “2 hr plasma level-ng/mL” value is “C (C = between 100 nM and 1000 nM)”. Also, at hERG channel, the inhibition at 600 s, 1 µM is under 25% and the inhibition at 600 s, 10 µM lay in the range of 25 to 50%.

As for `COc1cc(NC(=O)C(=O)c2c(C)n(Cc3ccc(Cl)cc3)c3ccc(OC)nc23)ccn1` [Compound 36, 2-(1-(4-chlorobenzyl)-5-methoxy-2-methyl-1H-pyrrolo[3,2-b]pyridin-3-yl)-N-(2-methoxypyridin-4-yl)-2-oxoacetamide], the “2 hr plasma level-ng/mL” value in data set [1] is “C (C = between 100 nM and 1000 nM)”. Besides, at hERG channel, the inhibition at 600 s, 1 µM was under 25% and the inhibition at 600 s, 10 µM was under 25%.

Regarding `COc1cnc2c(c1)c(C(=O)C(=O)Nc1ccnc(OC)c1)c(C)n2Cc1ccc(Cl)cc1` [Compound 38, 2-(1-(4-chlorobenzyl)-5-methoxy-2-methyl-1H-pyrrolo[2,3-b]pyridin-3-yl)-N-(2-methoxypyridin-4-yl)-2-oxoacetamide], in data set [1], the “2 hr plasma level-ng/mL” value was “C (C = between 100 nM and 1000 nM)”. In addition, at hERG channel, the inhibition at 600 s, 1 µM was under 25% and the inhibition at 600 s, 10 µM is 25 to 50%.

As to `COc1ccc(Cn2c(C)c(C(=O)C(=O)Nc3ccnc(OC)c3)c3cc(OC)c(F)cc32)nc1` [Compound 32, 2-(6-fluoro-5-methoxy-1-((5-methoxypyridin-2-yl)methyl)-2-methyl-1H-indol-3-yl)-N-(2-methoxypyridin-4-yl)-2-oxoacetamide], in data set [1], the “2 hr plasma level-ng/mL” value is “C (C = between 100 nM and 1000 nM)”. Moreover, on hERG channel, the inhibition at 600 s, 1 µM was under 25% and the inhibition at 600 s, 10 µM was under 25%.

Turning to `CNc1ccc2c(c1)c(C(=O)C(=O)Nc1ccnc(OC)c1)c(C)n2Cc1ccc(Cl)cc1` [Compound 9, 2-(1-(4-chlorobenzyl)-2-methyl-5-(methylamino)-1H-indol-3-yl)-N-(2-methoxypyridin-4-yl)-2-oxoacetamide], in data set [1], the “2 hr plasma level-ng/mL” value was “C (C = between 100 nM and 1000 nM)”. Further, on hERG channel, the inhibition at 600 s, 1 µM was under 25% and the inhibition at 600 s, 10 µM was under 25%.

`COc1cc(NC(=O)C(=O)c2c(C)n(Cc3ccc(Cl)cc3)c3ccc(C#N)cc23)ccn1` [Compound 15, 2-(1-(4-chlorobenzyl)-5-cyano-2-methyl-1H-indol-3-yl)-N-(2-methoxypyridin-4-yl)-2-oxoacetamide]: the “2 hr plasma level-ng/mL” value in data set [1] is “D (D = greater than 1000 nM)”. Also, at hERG channel, the inhibition at 600 s, 1 µM is under 25% and the inhibition at 600 s, 10 µM is 50 to 75%.

Consider `COc1cc(NC(=O)C(=O)c2c(C)n(Cc3ccc(Cl)cc3)c3ccc(OC(C)=O)cc23)ccn1` [Compound 1, 1-(4-chlorobenzyl)-3-(2-(2-methoxypyridin-4-ylamino)-2-oxoacetyl)-2-methyl-1H-indol-5-yl acetate], for which, in data set [1], the “2 hr plasma level-ng/mL” value is listed as “A (A = Less than 10 nM)”. Moreover, at hERG channel, the inhibition at 600 s, 1 µM is under 25% and the inhibition at 600 s, 10 µM was under 25%.
